From patent US4698350A, “1-ethyl-6-fluoro-1,4-dihydro- 7-(2,6-dimethyl-4-pyridinyl)-4-oxo-3-quinolinecarboxylic acid and antibacterial use thereof” (Sterling Drug Inc., priority 1984, dated 1987)
Values after ≈ are worked out from the molar mass of the structure shown. Read-outs that look alike come from different tables or passages of the source.

Key:
S. aureus 39881 = experiment: In vitro antibacterial MIC/MBC test; assay type: cell-based; details: Staphylococcus aureus, S. aureus 39881
Method in brief: (§1)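 In this microdilution assay, strains are exposed to two-fold compound dilutions in MHB (streptococci in BHI+1% NHS) at roughly 1×10^4 cells per well for 18-20 hours at 37° C. Visible growth defines the MIC. Subculture onto MHA or BHI agar+10% NHS defines the MBC.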

S. aureus 4-81 = experiment: In vitro antibacterial MIC/MBC test; assay type: cell-based; details: Staphylococcus aureus, 481, S. aureus 4-81
Method in brief: as §1

S. aureus S-500 = experiment: In vitro antibacterial MIC/MBC test; assay type: cell-based; details: Staphylococcus aureus, S500, S. aureus S-500
Method in brief: as §1

S. epidermidis 2-1-B = experiment: In vitro antibacterial MIC/MBC test; assay type: cell-based; details: Staphylococcus epidermidis, 21B, S. epidermidis 2-1-B
Method in brief: as §1

S. faecalis 4510 = experiment: In vitro antibacterial MIC/MBC test; assay type: cell-based; details: Enterococcus faecalis, S. faecalis 4510
Method in brief: as §1

S. pneumoniae Type I = experiment: In vitro antibacterial MIC/MBC test; assay type: cell-based; details: Streptococcus pneumoniae, S. pneumoniae Type I
Method in brief: as §1

S. pyogenes (89) = experiment: In vitro antibacterial MIC/MBC test; assay type: cell-based; details: Streptococcus pyogenes, S. pyogenes SWRI No. 89
Method in brief: as §1

S. pyogenes C203 = experiment: In vitro antibacterial MIC/MBC test; assay type: cell-based; details: Streptococcus pyogenes, S. pyogenes C203
Method in brief: as §1

S. aureus = experiment: In vitro MIC/MBC summary (Table II); assay type: cell-based; details: Staphylococcus aureus
Method: (§2) Win 52,522 and Win 35,439 were solubilized in 0.1 ml of 0.5 N NaOH/mg of compound and diluted in sterile distilled water to 160 mcg/ml. Vancomycin and methicillin were solubilized in sterile distilled water to 1250 mcg/ml of base compound. The stock solutions were sterilized by filtration through membrane filters with a 0.45 μm pore size.
(§3) The bacterial cultures listed in Table I (hereinbelow) were grown overnight at 37° C. in MHB for all cultures except the Streptococcus strains. These were grown in BHI+10% NHS. The overnight broth cultures were adjusted to an optical density of 0.10 (650 nm, B L Spectronic 20) in sterile distilled water and subsequently diluted to 6.7×10^6 cells/ml in MHB or BHI+1% NHS.
(§4) Serial two-fold dilutions of the compound solutions were prepared in MHB (or in BHI+1% NHS for tests with Streptococci) and dispensed into 96-well microtiter trays in a volume of 0.1 ml/well using a Sandy Springs (Bellco Glass Co.) dispenser. The trays were then inoculated with 0.0015 ml of a suspension containing 6.7×10^6 cells/ml of the appropriate inoculum using a MIC-2000 inoculator (Dynatech Corp.) resulting in a final inoculum of approximately 1×10^4 cells/well or 1×10^5 cells/ml. The trays were incubated at 37° C. for 18-20 hours and the minimal inhibitory concentration (MIC), defined as the lowest concentration of compound to inhibit visible bacterial growth, was recorded.
(§5) After the MIC values were recorded, the contents in the microtiter trays were thoroughly mixed on a Bellco Mini-orbital Shaker (Bellco Glass Co.) for 3 min. at a setting of 8. A portion (0.0015 ml) from each well was then transferred via an MIC-2000 inoculator to plates containing MHA or BHI agar+10% NHS. The plates were incubated at 37° C. for 18-20 hrs. The minimal bactericidal concentration (MBC), defined as the lowest concentration of compound that prevented the formation of a recognizable colony on the agar surface, was recorded.

Streptococcus sp. = experiment: In vitro MIC/MBC summary (Table II); assay type: cell-based; details: 9 Streptococcus sp. strains
Method: as §2, §3, §4, §5

S. edidermidis = experiment: In vitro MIC/MBC summary (Table II); assay type: cell-based, S. epidermidis; details: Staphylococcus epidermidis, 5 S. edidermidis strains
Method: as §2, §3, §4, §5

[1] = test system: Staphylococcus aureus 39881 (Methicillin-resistant); experiment: Mouse protection test, S. aureus 39881 (methicillin-resistant) infection; assay type: in vivo, ICR mice; Staphylococcus aureus; details: for Survivors/Total: two doses; for ED50: Staphylococcus aureus, 168 h, two doses one-half and four hours postinfection, read-out: Protective Dose 50% (95% Confidence Limits)
Method: ICR mice, female, 18-20 grams each.
Solutions of Win 52,522 and Win 35,439 were prepared by dissolving the appropriate weight of drug in 0.3 to 0.4 ml of 1 N NaOH and then bringing the solutions to the desired volume with distilled water. Methicillin and vancomycin were dissolved directly in distilled water.
The culture was streaked onto three Brain Heart Infusion Agar plates and incubated 16 hours at 37° C. The cells were washed off each plate with five ml of saline and the cell suspension was shaken with glass beads for two minutes on a paint shaker. The suspension was diluted with saline so that a […] gave a 44% T reading on a B+L Spectronic 20 (650 nm) calibrated with saline. The stock suspension was diluted 1:24 (10 ml stock suspension+230 ml 5% mucin) to obtain the test inoculum containing 1.55×10^9 cells/ml.
Mice were inoculated intraperitoneally with 0.5 ml of the bacterial test inoculum.
Mice were medicated twice: at one-half and four hours postinfection. The drugs were administered by both subcutaneous (0.2 ml) and oral (0.5 ml) routes.
Deaths were recorded daily for seven days for all tests. Fifty percent protective dose values (PD50's) were calculated using probit analysis [SAS Users Guide: Statistics, 1982 Edition, SAS Institute, Inc., Cary, N.C.].

Molecule `CCn1cc(C(=O)O)c(=O)c2ccc(-c3cc(C)nc(C)c3)cc21` [Win 35,439, 1-ethyl-1,4-dihydro-7-(2,6-dimethyl-4-pyridinyl)-4-oxo-3-quinolinecarboxylic acid] has an MBC (S. aureus 39881; read-out: MBC) of 0.06 µg/mL (≈ 0.186 µM), an MIC (S. aureus 39881; read-out: MIC) of 0.06 µg/mL (≈ 0.186 µM) and an MBC (S. aureus 4-81; read-out: MBC) of 0.125 µg/mL (≈ 0.388 µM). The MIC (S. aureus 4-81; read-out: MIC) was 0.06 µg/mL (≈ 0.186 µM), the MBC (S. aureus S-500; read-out: MBC) was 0.25 µg/mL (≈ 0.776 µM) and the MIC (S. aureus S-500; read-out: MIC) was 0.125 µg/mL (≈ 0.388 µM). It also gave an MBC (S. epidermidis 2-1-B; read-out: MBC) of 0.25 µg/mL (≈ 0.776 µM), an MIC (S. epidermidis 2-1-B; read-out: MIC) of 0.25 µg/mL (≈ 0.776 µM) and an MBC (S. faecalis 4510; read-out: MBC) of 0.5 µg/mL (≈ 1.55 µM). It also gave an MIC (S. faecalis 4510; read-out: MIC) of 0.5 µg/mL (≈ 1.55 µM), an MBC (S. pneumoniae Type I; read-out: MBC) of 2 µg/mL (≈ 6.2 µM) and an MIC (S. pneumoniae Type I; read-out: MIC) of 2 µg/mL (≈ 6.2 µM). It also gave an MBC (S. pyogenes (89); read-out: MBC) of over 16 µg/mL, an MIC (S. pyogenes (89); read-out: MIC) of 4 µg/mL (≈ 12.4 µM) and an MBC (S. pyogenes C203; read-out: MBC) of over 16 µg/mL. The MIC (S. pyogenes C203; read-out: MIC) was 4 µg/mL (≈ 12.4 µM), the MBC (S. aureus; read-out: MBC 50%) was 0.25 µg/mL (≈ 0.776 µM) and the MBC (S. aureus; read-out: MBC 90%) was 0.5 µg/mL (≈ 1.55 µM). The MBC (S. aureus; read-out: MBC Range) was 0.125 to 0.5 µg/mL (≈ 0.388 to 1.55 µM), the MIC50 (S. aureus; 15 S. aureus strains, read-out: MIC 50%) was 0.06 µg/mL (≈ 0.186 µM) and the MIC90 (S. aureus; 15 S. aureus strains, read-out: MIC 90%) was 0.125 µg/mL (≈ 0.388 µM). The MIC (S. aureus; 15 S. aureus strains, read-out: MIC Range) was 0.03 to 0.125 µg/mL (≈ 0.0931 to 0.388 µM), the MBC (Streptococcus sp.; read-out: MBC 50%) was 2 µg/mL (≈ 6.2 µM) and the MBC (Streptococcus sp.; read-out: MBC 90%) was over 16 µg/mL. It also gave an MIC50 (Streptococcus sp.; read-out: MIC 50%) of 2 µg/mL (≈ 6.2 µM), an MIC90 (Streptococcus sp.; read-out: MIC 90%) of 4 µg/mL (≈ 12.4 µM) and an MIC (Streptococcus sp.; read-out: MIC Range) of 0.5 to 4 µg/mL (≈ 1.55 to 12.4 µM). For the same molecule, the MBC (S. edidermidis; read-out: MBC 50%) was 0.25 µg/mL (≈ 0.776 µM), the MBC (S. edidermidis; read-out: MBC 90%) was 0.25 µg/mL (≈ 0.776 µM) and the MBC (S. edidermidis; read-out: MBC Range) was 0.25 to 0.5 µg/mL (≈ 0.776 to 1.55 µM). For the same molecule, the MIC50 (S. edidermidis; read-out: MIC 50%) was 0.25 µg/mL (≈ 0.776 µM), the MIC90 (S. edidermidis; read-out: MIC 90%) was 0.25 µg/mL (≈ 0.776 µM) and the MIC (S. edidermidis; read-out: MIC Range) was 0.25 to 0.5 µg/mL (≈ 0.776 to 1.55 µM). The Survivors/Total ([1]; 1.56 mg/kg po) was 1/10, the Survivors/Total ([1]; 1.56 mg/kg sc) was 0/10 and the Survivors/Total ([1]; 3.13 mg/kg po) was 0/10. The Survivors/Total ([1]; 3.13 mg/kg sc) was 0/10, the Survivors/Total ([1]; 6.25 mg/kg po) was 3/10 and the Survivors/Total ([1]; 6.25 mg/kg sc) was 9/10. The Survivors/Total ([1]; 12.5 mg/kg po) was 10/10, the Survivors/Total ([1]; 12.5 mg/kg sc) was 7/10 and the ED50 ([1]; po) was 7.2 mg/kg. It also gave an ED50 ([1]; sc) of about 4.9 mg/kg.
